Data: ChEMBL document CHEMBL3124912, “Combination of amino acid/dipeptide with nitric oxide donating oleanolic acid derivatives as PepT1 targeting antitumor prodrugs” (J Med Chem, 2014)
≈ marks a conversion by molar mass, not a printed value. Calls of active or inactive are those of the source. No cut-off for these calls is given here.

Columns and labels:
HCT-116 = test: Cytotoxicity against human HCT116 cells after 48 hrs by CCK-8 assay; type: functional, cell-based; details: HCT-116, 48 h
A549 [1] = test: Cytotoxicity against human A549 cells after 48 hrs by CCK-8 assay; type: functional, cell-based; details: A549, 48 h
MCF7 = test: Cytotoxicity against human MCF7 cells after 48 hrs by CCK-8 assay; type: functional, cell-based; details: MCF7, 48 h
HepG2 = test: Cytotoxicity against human HepG2 cells after 48 hrs by CCK-8 assay; type: functional, cell-based; details: HepG2, 48 h
[2] = Aqueous equilibrium solubility of the compound after 24 hrs by HPLC analysis; type: physicochemical; details: water (aqueous)
PepT1 [3] = test: Effective permeability in Sprague-Dawley rat single-pass intestinal perfusion model assessed as PepT1-mediated drug transport at 0.1 mM administered in HEPES buffer at pH 7.4 via PVC tubing after 20 to 120 mins by HPLC analysis; type: ADME, organism-based; details: other: intestinal perfusion via PVC tubing, read-out: Peff
PepT1 [4] = test: Effective permeability in Sprague-Dawley rat single-pass intestinal perfusion model assessed as PepT1-mediated drug transport at 0.1 mM administered in MES buffer at pH 6 via PVC tubing after 20 to 120 mins by HPLC analysis; type: ADME, organism-based; details: other: intestinal perfusion via PVC tubing, read-out: Peff
L02 = test: Induction of human LO2 cell growth at 0.02 to 10 uM after 48 hrs by CCK-8 assay; type: functional, cell-based
[5] = Cytotoxicity against human LO2 cells at 0.02 to 10 uM after 48 hrs by CCK-8 assay; type: cell-based; details: l02, 48 h
[6] = Induction of nitric oxide release in PBS at 100 uM at pH 7.4 after 24 hrs by Griess method; details: buffer, pH 7.4, 24 h
[7] = Chemical stability in MES buffer assessed as compound remaining at 37 degC up to 2 hrs by HPLC analysis; type: physicochemical; details: read-out: Stability
[8] = Induction of nitric oxide release in PBS at 100 uM at pH 7.4 after 24 hrs by Griess method in presence of rat serum; details: pH 7.4, 24 h
[9] = Cytotoxicity against human LO2 cells assessed as cell survival at 50 uM after 48 hrs by CCK-8 assay relative to control; type: cell-based, L02; details: read-out: Survival
PepT1 [10] = test: Effective permeability in Sprague-Dawley rat single-pass intestinal perfusion model assessed as PepT1-mediated drug transport at 0.1 mM administered in MES buffer at pH 6 via PVC tubing after 20 to 120 mins by HPLC analysis in presence of Gly-Sar; type: ADME, organism-based; details: other: intestinal perfusion via PVC tubing, pH 6, with Gly-Sar (concentration not stated), read-out: Peff
A549 [11] = test: Ratio of cisplatin IC50 to compound IC50 for human A549 cells; type: functional
[12] = Chemical stability in HEPES buffer assessed as compound remaining at 37 degC up to 2 hrs by HPLC analysis; type: physicochemical; details: read-out: Stability

Compound	IC50 (HCT-116)	IC50 (A549 [1])	IC50 (MCF7)	IC50 (HepG2)	solubility thermodynamic at 24 h [2]	Papp at 100 µM (PepT1 [3])	Papp at 100 µM (PepT1 [4])	Activity (L02)	Activity [5]	Activity [6]	remaining at 2 h [7]	Activity [8]	viability at 48 h, 50 µM [9]	Papp at 100 µM (PepT1 [10])	Ratio IC50 (A549 [11])	remaining at 2 h [12]
CC(C)[C@H](NC(=O)[C@H](C)N)C(=O)OCCOC(=O)[C@]12CCC(C)(C)C[C@H]1C1=CC[C@@H]3[C@@]4(C)CC[C@H](OC(=O)CO[N+](=O)[O-])C(C)(C)[C@@H]4CC[C@@]3(C)[C@]1(C)CC2	24.7 µM	9.6 µM	83.2 µM	22.1 µM	–	–	–	–	–	–	–	–	–	–	–	–
CC(COC(=O)[C@]12CCC(C)(C)C[C@H]1C1=CC[C@@H]3[C@@]4(C)CC[C@H](O)C(C)(C)[C@@H]4CC[C@@]3(C)[C@]1(C)CC2)OC(=O)[C@@H](NC(=O)[C@@H](N)C(C)C)C(C)C (stereo partly drawn)	133 µM	64.3 µM	> 150 µM	73.1 µM	–	–	–	–	–	–	–	–	–	–	–	–
CC(C)[C@H](N)C(=O)OCCOC(=O)[C@]12CCC(C)(C)C[C@H]1C1=CC[C@@H]3[C@@]4(C)CC[C@H](O)C(C)(C)[C@@H]4CC[C@@]3(C)[C@]1(C)CC2.Cl	> 150 µM	68.1 µM	> 150 µM	96.7 µM	25.2 µg/mL	41.5 ×10⁻⁶ cm/s	–	–	–	–	–	–	–	–	–	–
CC1(C)CC[C@]2(C(=O)O)CC[C@]3(C)C(=CC[C@@H]4[C@@]5(C)CC[C@H](O)C(C)(C)[C@@H]5CC[C@]43C)[C@@H]2C1 [OLEANOLIC_ACID]	> 150 µM	81.4 µM	> 150 µM	51.4 µM	0.012 µg/mL (≈ 0.0263 µM)	31.7 ×10⁻⁶ cm/s	31.6 ×10⁻⁶ cm/s	Active	Non-toxic	–	–	–	–	–	–	–
CC(C)[C@H](N)C(=O)N[C@H](C(=O)OCCOC(=O)[C@]12CCC(C)(C)C[C@H]1C1=CC[C@@H]3[C@@]4(C)CC[C@H](OC(=O)CO[N+](=O)[O-])C(C)(C)[C@@H]4CC[C@@]3(C)[C@]1(C)CC2)C(C)C.Cl	15.5 µM	2.4 µM	15 µM	2.8 µM	22.3 µg/mL	23.4 ×10⁻⁶ cm/s	46 ×10⁻⁶ cm/s	Active	Non-toxic	9.9%	100%	Active	60%	16.3 ×10⁻⁶ cm/s	7	98.2%
C[C@H](N)C(=O)OCCOC(=O)[C@]12CCC(C)(C)C[C@H]1C1=CC[C@@H]3[C@@]4(C)CC[C@H](OC(=O)CO[N+](=O)[O-])C(C)(C)[C@@H]4CC[C@@]3(C)[C@]1(C)CC2	32.8 µM	28.1 µM	48 µM	23.2 µM	–	–	–	–	–	–	–	–	–	–	–	–
CC[C@H](C)[C@H](N)C(=O)OCCOC(=O)[C@]12CCC(C)(C)C[C@H]1C1=CC[C@@H]3[C@@]4(C)CC[C@H](OC(=O)CO[N+](=O)[O-])C(C)(C)[C@@H]4CC[C@@]3(C)[C@]1(C)CC2	> 150 µM	17.7 µM	74 µM	16.3 µM	–	–	–	–	–	–	–	–	–	–	–	–
CC(C)[C@H](N)C(=O)OCCOC(=O)[C@]12CCC(C)(C)C[C@H]1C1=CC[C@@H]3[C@@]4(C)CC[C@H](OC(=O)CO[N+](=O)[O-])C(C)(C)[C@@H]4CC[C@@]3(C)[C@]1(C)CC2.Cl	24.9 µM	7.5 µM	25.5 µM	10.7 µM	18.6 µg/mL	20.3 ×10⁻⁶ cm/s	33.2 ×10⁻⁶ cm/s	Active	Non-toxic	6.7%	100%	Active	60%	25.3 ×10⁻⁶ cm/s	2	98.5%
